Assay results: patent publication US8633219B2, “Combination therapy” (Japan Tobacco Inc., priority 2004, dated 2014)

Experiments:
HIV-1IIIB = test: Drug combination anti-HIV-1 cytoprotection assay (MacSynergy II) in CEM-SS cells infected with HIV-1IIIB; assay type: cell-based; conditions: in combination with Compound A; for Antagonism Volume, Result 1 / Synergy Volume, Result 1 / Antagonism Volume, Result 2 / Synergy Volume, Result 2 / Antagonism Volume, Result 3 / Synergy Volume, Result 3: 95% confidence interval; for Antagonism Volume, Result 1 / Synergy Volume, Result 1: assay 1; for Antagonism Volume, Result 2 / Synergy Volume, Result 2: assay 2; for Antagonism Volume, Result 3 / Synergy Volume, Result 3: assay 3; for Mean Antagonism Volume / Mean Synergy Volume: n = 3
Procedure: This work was performed using the Prichard and Shipman MacSynergy II three-dimensional model for statistical evaluation of combination anti-HIV assays. Using a standard microtiter plate format, each combination assay was performed in CEM-SS T-lymphocytic cells acutely infected with the a laboratory-adapted strain, HIV-1IIIB, and viral growth/inhibition was evaluated by measuring by monitoring virus-induced cytopathic effects (CPE) at the experimental endpoint.
AZT was dissolved in sterile dH2O and the remainder of the control compounds were dissolved in DMSO for analysis in the combination assays. […] CEM-SS cells were passaged in T-75 flasks prior to use in the antiviral assay. On the day preceding the assay, the cells were split 1:2 to assure they were in an exponential growth phase at the time of infection. Total cell and viability quantification was performed using a hemacytometer and trypan blue exclusion.
The virus used for these tests was the lymphocytropic virus strain HIV-1IIIB. This virus was obtained from the NIH AIDS Research and Reference Reagent Program and was grown in CEM-SS cells for the production of stock virus pools. For each assay, a pre-titered aliquot of virus was removed from the freezer (−80° C.) and allowed to thaw slowly to room temperature in a biological safety cabinet. The virus was resuspended and diluted into tissue culture medium such that the amount of virus added to each well in a volume of 50 μl was the amount determined to give between 85 to 95% cell killing at 6 days post-infection.
The format of the test plate was standardized as follows. Each plate contains cell control wells (cells only), virus control wells (cells plus virus), drug cytotoxicity wells (cells plus drug only), drug colorimetric control wells (drug only), as well as experimental wells (drug plus cells plus virus). The final volume in each well was 200 μl.
At assay termination, the assay plates were stained with the soluble tetrazolium-based dye MTS (CellTiter96 Reagent, Promega) to determine cell viability and quantify compound toxicity. […] At termination of the assay, 20 μl of MTS reagent was added per well. The microtiter plates were then incubated 4-6 hrs at 37° C. for the HIV cytoprotection assay; the incubation intervals were chosen based on empirically determined times for optimal dye reduction. Adhesive plate sealers were used in place of the lids, the sealed plate was inverted several times to mix the soluble formazan product and the plate was read spectrophotometrically at 490/650 nm with a Molecular Devices Vmax plate reader.
Combination antiviral assays were performed with CEM-SS cells utilizing the HIV-1IIIB strain of virus as described above.
The expected additive antiviral protection was subtracted from the experimentally determined antiviral activity at each combination concentration resulting in a positive value (synergy), a negative value (antagonism), or zero (additivity). The results of the combination assays are presented three dimensionally at each combination concentration, yielding a surface of activity extending above (synergy) or below (antagonism) the plane of additivity. The volume of the surface is calculated and expressed as a synergy volume (μM^2%) calculated at the 95% confidence interval.
Slightly synergistic activity and highly synergistic activity have been defined as yielding synergy volumes of 50-100 μM^2% and >100 μM^2%, respectively.

CEM-SS cells = test: Cellular cytotoxicity by MTS staining in the combination assay; assay type: cell-based; conditions: combinations with other anti-HIV agents; Compound A 4 nM high-test concentration
Procedure: The format of the test plate was standardized as follows. Each plate contains cell control wells (cells only), virus control wells (cells plus virus), drug cytotoxicity wells (cells plus drug only), drug colorimetric control wells (drug only), as well as experimental wells (drug plus cells plus virus). The final volume in each well was 200 μl. Samples were evaluated with triplicate measurements using a checkerboard dilution scheme; […]; antiviral efficacy and cellular cytotoxicity were monitored by MTS staining at the experimental endpoint.
At assay termination, the assay plates were stained with the soluble tetrazolium-based dye MTS (CellTiter96 Reagent, Promega) to determine cell viability and quantify compound toxicity. MTS is metabolized by the mitochondrial enzymes of metabolically active cells to yield a soluble formazan product, allowing the rapid quantitative analysis of cell viability and compound cytotoxicity. […] The microtiter plates were then incubated 4-6 hrs at 37° C. for the HIV cytoprotection assay; the incubation intervals were chosen based on empirically determined times for optimal dye reduction. Adhesive plate sealers were used in place of the lids, the sealed plate was inverted several times to mix the soluble formazan product and the plate was read spectrophotometrically at 490/650 nm with a Molecular Devices Vmax plate reader.

| Compound | Antagonism Volume, Result 1 (HIV-1IIIB) [μM^2%] | Synergy Volume, Result 1 (HIV-1IIIB) [μM^2%] | Antagonism Volume, Result 2 (HIV-1IIIB) [μM^2%] | Synergy Volume, Result 2 (HIV-1IIIB) [μM^2%] | Antagonism Volume, Result 3 (HIV-1IIIB) [μM^2%] | Synergy Volume, Result 3 (HIV-1IIIB) [μM^2%] | Mean Antagonism Volume (HIV-1IIIB) [μM^2%] | Mean Synergy Volume (HIV-1IIIB) [μM^2%] | synergistic cytotoxicity (CEM-SS cells) |
| --- | --- | --- | --- | --- | --- | --- | --- | --- | --- |
| Cc1cn([C@H]2C[C@H](N=[N+]=[N-])[C@@H](CO)O2)c(=O)[nH]c1=O [AZT, zidovudine] | −21 | 46 | −44 | 19 | −23 | 57 | −29.3 | 40.7 |  |
| COc1cc2c(cc1Cc1cccc(Cl)c1F)c(=O)c(C(=O)O)cn2[C@H](CO)C(C)C [Compound A, (S)-6-(3-Chloro-2-fluorobenzyl)-1-(1-hydroxymethyl-2-methylpropyl)-7-methoxy-4-oxo-1,4-dihydroquinoline-3-carboxylic acid] |  |  |  |  |  |  |  |  | no evidence of synergistic cytotoxicity |
| O=C1Nc2ccc(Cl)cc2[C@@](C#CC2CC2)(C(F)(F)F)O1 [EFV, efavirenz] | −9 | 26 | 0 | 54 | −7 | 26 | −5.3 | 35.3 |  |
| CC(C)(C)NC(=O)[C@@H]1CN(Cc2cccnc2)CCN1C[C@@H](O)C[C@@H](Cc1ccccc1)C(=O)N[C@H]1c2ccccc2C[C@H]1O [IDV, indinavir] | −7 | 57 | −23 | 13 | −26 | 10 | −18.7 | 26.7 |  |
| Cc1c(O)cccc1C(=O)N[C@@H](CSc1ccccc1)[C@H](O)CN1C[C@H]2CCCC[C@H]2C[C@H]1C(=O)NC(C)(C)C [NFV, nelfinavir] | −3 | 44 | −3 | 38 | −46 | 20 | −17.3 | 34. |  |
| C[C@H](Cn1cnc2c(N)ncnc21)OCP(=O)(O)O [PMPA, tenofovir] | −23 | 29 | −4 | 43 | −60 | 13 | −29.0 | 28.3 |  |
